Data: PMC3005334 (Cell, 2010)

Legend:
[1] = test system: Atg1, Psk2 and denatured Ypk1; test: In vitro small metabolite-protein binding assay; set-up: species or system Saccharomyces cerevisiae; conditions: denatured protein or control proteins; indicates non-specific adsorption
[2] = biological target: T1, Ssk22 (Saccharomyces cerevisiae, UniProt P25390); test: Ssk22 protein levels purified from erg4Δ cells with exogenous ergosterol; assay type: cell-based; conditions: erg4Δ mutant strain, exogenous ergosterol added to the medium
T1 sequence (P25390 1-1331): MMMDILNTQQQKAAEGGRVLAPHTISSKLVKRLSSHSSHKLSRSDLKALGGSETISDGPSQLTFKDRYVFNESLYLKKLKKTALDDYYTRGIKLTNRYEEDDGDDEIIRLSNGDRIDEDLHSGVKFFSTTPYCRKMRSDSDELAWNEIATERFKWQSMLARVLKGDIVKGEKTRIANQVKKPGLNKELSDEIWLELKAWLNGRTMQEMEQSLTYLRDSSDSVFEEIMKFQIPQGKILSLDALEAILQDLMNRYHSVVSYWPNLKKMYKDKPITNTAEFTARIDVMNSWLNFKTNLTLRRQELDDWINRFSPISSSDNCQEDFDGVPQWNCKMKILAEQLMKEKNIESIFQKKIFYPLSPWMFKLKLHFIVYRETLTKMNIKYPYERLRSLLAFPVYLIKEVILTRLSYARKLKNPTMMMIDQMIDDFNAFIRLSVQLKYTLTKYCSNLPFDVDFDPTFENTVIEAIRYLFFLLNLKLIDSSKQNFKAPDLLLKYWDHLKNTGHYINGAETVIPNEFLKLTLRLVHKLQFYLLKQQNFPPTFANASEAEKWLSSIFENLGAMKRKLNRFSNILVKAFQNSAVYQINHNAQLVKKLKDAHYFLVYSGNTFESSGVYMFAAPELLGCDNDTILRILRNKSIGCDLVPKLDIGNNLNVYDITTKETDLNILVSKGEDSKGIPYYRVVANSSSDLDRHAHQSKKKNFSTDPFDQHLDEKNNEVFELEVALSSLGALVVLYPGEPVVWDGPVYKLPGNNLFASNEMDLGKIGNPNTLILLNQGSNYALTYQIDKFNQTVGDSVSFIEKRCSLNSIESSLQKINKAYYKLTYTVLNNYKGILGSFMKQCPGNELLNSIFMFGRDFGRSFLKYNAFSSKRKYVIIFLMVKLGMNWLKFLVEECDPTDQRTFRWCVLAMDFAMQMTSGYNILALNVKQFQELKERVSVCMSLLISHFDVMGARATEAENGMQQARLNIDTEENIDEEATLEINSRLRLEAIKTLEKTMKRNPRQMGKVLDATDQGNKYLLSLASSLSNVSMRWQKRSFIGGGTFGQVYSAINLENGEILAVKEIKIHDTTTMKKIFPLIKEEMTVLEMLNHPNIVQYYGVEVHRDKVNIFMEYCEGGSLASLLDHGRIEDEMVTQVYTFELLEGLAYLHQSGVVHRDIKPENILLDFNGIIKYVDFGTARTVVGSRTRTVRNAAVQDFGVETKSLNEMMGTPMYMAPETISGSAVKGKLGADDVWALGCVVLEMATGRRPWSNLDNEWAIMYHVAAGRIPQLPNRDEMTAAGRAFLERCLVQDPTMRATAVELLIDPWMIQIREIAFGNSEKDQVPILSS

[3] = biological target: T2, Hmg1 (Saccharomyces cerevisiae, UniProt P12683); assay type: binding; conditions: probably low level of protein in the preparation
T2 sequence (P12683 1-1054): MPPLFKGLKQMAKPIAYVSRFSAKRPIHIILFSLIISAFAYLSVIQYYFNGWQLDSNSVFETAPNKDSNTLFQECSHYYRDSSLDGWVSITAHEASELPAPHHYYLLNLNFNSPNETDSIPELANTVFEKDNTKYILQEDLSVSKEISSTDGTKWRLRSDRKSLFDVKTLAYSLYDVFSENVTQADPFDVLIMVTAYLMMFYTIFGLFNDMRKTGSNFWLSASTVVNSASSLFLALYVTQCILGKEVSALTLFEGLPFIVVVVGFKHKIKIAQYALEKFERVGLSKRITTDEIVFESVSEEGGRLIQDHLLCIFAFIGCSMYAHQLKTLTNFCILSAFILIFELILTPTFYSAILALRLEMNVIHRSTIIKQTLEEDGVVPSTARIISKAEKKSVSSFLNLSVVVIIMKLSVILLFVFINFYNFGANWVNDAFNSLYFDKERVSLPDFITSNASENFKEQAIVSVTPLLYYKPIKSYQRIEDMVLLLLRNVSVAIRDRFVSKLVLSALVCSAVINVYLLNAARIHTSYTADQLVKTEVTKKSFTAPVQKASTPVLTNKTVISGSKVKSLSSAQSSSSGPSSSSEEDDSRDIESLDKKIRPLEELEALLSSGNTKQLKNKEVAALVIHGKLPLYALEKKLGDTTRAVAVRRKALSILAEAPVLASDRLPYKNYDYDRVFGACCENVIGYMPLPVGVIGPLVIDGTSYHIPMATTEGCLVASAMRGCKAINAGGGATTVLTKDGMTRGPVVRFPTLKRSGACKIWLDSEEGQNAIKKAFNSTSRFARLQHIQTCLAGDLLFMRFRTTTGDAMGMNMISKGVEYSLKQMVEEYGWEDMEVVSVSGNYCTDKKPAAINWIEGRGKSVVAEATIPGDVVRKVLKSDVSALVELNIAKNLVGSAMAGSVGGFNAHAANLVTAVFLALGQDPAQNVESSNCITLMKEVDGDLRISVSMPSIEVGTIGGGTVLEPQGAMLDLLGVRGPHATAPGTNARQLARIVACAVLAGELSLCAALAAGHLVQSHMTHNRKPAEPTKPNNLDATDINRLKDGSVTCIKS

For `CC(C)[C@@H](C)/C=C/[C@@H](C)[C@H]1CC[C@H]2C3=CC=C4C[C@@H](O)CC[C@]4(C)[C@H]3CC[C@]12C` [ergosterol], the “shape of binding curve over increasing free ergosterol” value [1] was “close to linear”, the Ssk22 protein levels [2] was “restored Ssk22 levels” and the “detection with Hmg1” value [3] was “not detected”.
